Data from publication PMC8956739, “A synthetic lipopeptide targeting top-priority multidrug-resistant Gram-negative pathogens” (Nature Communications, 2022).
Residues, ends and D or L forms follow the SMILES beside them.

Assay: Distribution, accumulation and metabolism in mouse kidneys (ME-SALDI-MS imaging, histology)
Assay type: in vivo
Conditions: mouse, in vivo
Procedure: At 2 h after the last dose on Day 2, mice were rapidly euthanized. The left kidney was collected, flash-frozen in liquid nitrogen, and stored at -80 C for MS imaging analysis. The right kidney was fixed in 10% formalin for histological examination (Histopathology and Organ Pathology Unit at the University of Melbourne). The level of histological damage to the kidneys was graded as previously described. […] A total of 1 μL was spotted onto electrochemically etched, porous-silicon semiconductor substrates for desorption/ionization on silicon (DIOS)[39]. […] For lipopeptide distribution in mouse kidneys, serially sectioned 8-μm frozen slices of the kidney were loaded onto DIOS substrates and coated with a thin layer of α-CHCA using a matrix sprayer (TM-Sprayer, HTX) for MSI analysis. […] Mounted tissue was scanned for imaging alignment (Epson Perfection […]) and calibrated as previously described. Resulting polymyxin maps were visualized and normalized against the total ion current (TIC) of each section using IonView software (Shimadzu). Lipopeptide accumulation in mouse kidneys was determined by simultaneous […] analysis of kidney tissue from treated animals and serial dilutions of the drug deposited on control kidney tissue. […] The signal intensities were compared to the corresponding concentration standard curve to calculate the concentration of lipopeptide present. Putative metabolites in the kidneys treated with lipopeptides were identified by […]. Control kidney sections were used to differentiate lipopeptide metabolites from endogenous metabolites and MS/MS data from lipopeptide standards were used to differentiate lipopeptide metabolites from the parent ion generated via CID processed in the acquisition software (MALDI Solutions, Shimadzu). Levels of accumulated lipopeptide metabolites were determined by normalization to the parent ion in MSI data.

CC[C@@H]1NC(=O)[C@@H](CC(C)C)NC(=O)[C@H](CCN)NC(=O)[C@@H](NC(=O)[C@H](CN)NC(=O)[C@@H](NC(=O)[C@H](CCN)NC(=O)c2ccc(Cl)cc2Cl)[C@@H](C)O)CCNC(=O)[C@H]([C@@H](C)O)NC(=O)[C@H](CCN)NC(=O)[C@H](CCN)NC1=O [Lipopeptide F365] (HELM PEPTIDE1{[O=C(c1ccc(Cl)cc1Cl)[*:2]].[Dab].T.[NC[C@H](N[*:1])C(=O)[*:2]].[Dab].[Dab].[dL].[Abu].[Dab].[Dab].T}$PEPTIDE1,PEPTIDE1,5:R3-11:R2$$$V2.0)
level at time molar (female, Swiss, 10 umol/kg, 10 μmol/kg SC, 6 doses Day 1 and 3 doses Day 2, 2 h after last dose, read-out: Concentration in the kidney cortex region): 20.8 µM | M1 metabolite in kidneys: no M1 metabolite detected | major metabolite in kidneys: M3
